Experimental findings from ChEMBL document CHEMBL2440026, “Hit-to-lead optimization of 2-(1H-pyrazol-1-yl)-thiazole derivatives as a novel class of EP1 receptor antagonists” (Bioorg Med Chem Lett, 2013) are described below.

Data set [1] concerns the target T1, Prostaglandin E2 receptor EP1 subtype (Homo sapiens) (UniProt P34995).
T1 sequence (whole entry): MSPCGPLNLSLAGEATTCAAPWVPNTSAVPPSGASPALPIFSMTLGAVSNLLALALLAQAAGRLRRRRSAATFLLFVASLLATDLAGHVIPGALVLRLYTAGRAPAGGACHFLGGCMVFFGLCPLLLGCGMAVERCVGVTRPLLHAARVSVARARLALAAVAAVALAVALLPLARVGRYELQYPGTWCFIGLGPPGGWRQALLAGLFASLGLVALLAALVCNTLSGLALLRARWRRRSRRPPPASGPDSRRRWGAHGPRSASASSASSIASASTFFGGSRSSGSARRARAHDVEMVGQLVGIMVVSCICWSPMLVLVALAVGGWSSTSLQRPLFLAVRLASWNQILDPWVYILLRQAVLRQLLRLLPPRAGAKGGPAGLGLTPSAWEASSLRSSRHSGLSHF
Kind of data set: Antagonist activity at human EP1 receptor at 1.1 uM by reporter gene assay. In general terms: Reporter assays use an easily measured gene product as a stand-in for the process of interest.

In data set [2] the target is T2, Prostaglandin E2 receptor EP1 subtype (Homo sapiens, UniProt P34995).
T2 sequence (P34995 whole entry): T1 sequence (whole entry)
Kind of data set: Antagonist activity at human EP1 receptor by reporter gene assay.

A short description of data set [3]: Oral bioavailability in Sprague-Dawley rat at 10 mg/kg. It is filed as ADME, organism-based. Particulars: in vivo.
In data set [4] the test system is Salmonella typhimurium. Kind of data set: Genotoxicity in Salmonella typhimurium TA100. It is filed as toxicity, organism-based. The note with it: salmonella enterica subsp. enterica serovar typhimurium.
For data set [5], the system named is Salmonella typhimurium. Kind of data set: Genotoxicity in Salmonella typhimurium TA98. The class given is toxicity, organism-based. Particulars: salmonella enterica subsp. enterica serovar typhimurium.
Data set [6] in a line: Apparent permeability from apical to basolateral side in MDCK cells. Particulars: dog. The class given is ADME, cell-based, Canis lupus familiaris.
Data set [7] concerns the target T3, Prostaglandin E2 receptor EP4 subtype (Homo sapiens, UniProt P35408). Kind of data set: Binding affinity to human EP4 receptor.
Data set [8] addresses T4, Prostaglandin E2 receptor EP2 subtype (Homo sapiens, UniProt P43116). Kind of data set: Binding affinity to human EP2 receptor.
Data set [9] concerns the target T5, Prostaglandin E2 receptor EP3 subtype (Homo sapiens, UniProt P43115).
T5 sequence (P43115 whole entry): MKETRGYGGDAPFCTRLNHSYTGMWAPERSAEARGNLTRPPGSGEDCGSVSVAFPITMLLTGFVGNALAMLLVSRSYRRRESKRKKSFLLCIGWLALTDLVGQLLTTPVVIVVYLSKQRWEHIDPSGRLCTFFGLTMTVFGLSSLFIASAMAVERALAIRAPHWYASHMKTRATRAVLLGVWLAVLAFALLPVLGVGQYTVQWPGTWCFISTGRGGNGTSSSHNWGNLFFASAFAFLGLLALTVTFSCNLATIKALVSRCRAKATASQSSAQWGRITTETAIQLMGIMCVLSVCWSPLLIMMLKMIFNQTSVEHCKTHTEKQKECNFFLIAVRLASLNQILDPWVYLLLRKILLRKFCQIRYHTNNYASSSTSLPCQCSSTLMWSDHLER
Kind of data set: Binding affinity to human EP3 receptor.

For data set [10], the target named is T2, Prostaglandin E2 receptor EP1 subtype. Kind of data set: Binding affinity to human EP1 receptor.
The target is the same in data set [11]. Kind of data set: Antagonist activity at human EP1 receptor by intracellular Ca2+ release assay. It is filed as functional, cell-based.
The nature of data set [12]: Intrinsic clearance in rat […] by LC/MS/MS analysis. It is filed as ADME, cell-free.
Data set [13] is described as follows: Intrinsic clearance in human […] by LC/MS/MS analysis. The class given is ADME, cell-free.
The target of data set [14] is Cytochrome P450 2D6 (Homo sapiens, UniProt P10635). Kind of data set: Inhibition of CYP2D6 (unknown origin). It is filed as ADME.
Data set [15] has as its target Cytochrome P450 3A4 (Homo sapiens, UniProt P08684). Kind of data set: Inhibition of CYP3A4 (unknown origin). The class given is ADME.
In data set [16] the target is Cytochrome P450 2C19 (Homo sapiens, UniProt P33261). Kind of data set: Inhibition of CYP2C19 (unknown origin). It is filed as ADME.
Data set [17] has as its target Cytochrome P450 2C9 (Homo sapiens, UniProt P11712). Kind of data set: Inhibition of CYP2C9 (unknown origin). The class given is ADME.
Data set [18] deals with T6, Cytochrome P450 1A2 (Homo sapiens, UniProt P05177).
T6 sequence (P05177 whole entry): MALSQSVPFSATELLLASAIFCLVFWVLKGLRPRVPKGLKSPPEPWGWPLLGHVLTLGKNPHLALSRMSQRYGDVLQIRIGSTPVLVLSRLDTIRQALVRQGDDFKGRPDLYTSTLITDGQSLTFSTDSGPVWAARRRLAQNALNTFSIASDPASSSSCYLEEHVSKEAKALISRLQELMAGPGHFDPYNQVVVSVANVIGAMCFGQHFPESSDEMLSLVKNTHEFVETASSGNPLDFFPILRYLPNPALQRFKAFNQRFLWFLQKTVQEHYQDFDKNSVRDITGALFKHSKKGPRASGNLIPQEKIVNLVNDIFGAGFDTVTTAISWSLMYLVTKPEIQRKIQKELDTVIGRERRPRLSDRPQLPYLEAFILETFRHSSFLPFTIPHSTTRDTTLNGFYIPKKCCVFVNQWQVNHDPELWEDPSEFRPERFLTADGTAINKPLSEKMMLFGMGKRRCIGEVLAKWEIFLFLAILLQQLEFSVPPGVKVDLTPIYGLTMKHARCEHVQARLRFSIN
Kind of data set: Inhibition of CYP1A2 (unknown origin). The class given is ADME.

For data set [19], the species on record is Homo sapiens. Kind of data set: Selectivity ratio of IC50 for EP4 receptor (unknown origin) to IC50 for human EP1 receptor.
The species named for data set [20] is Homo sapiens. Kind of data set: Selectivity ratio of IC50 for EP3 receptor (unknown origin) to IC50 for human EP1 receptor.
The species named for data set [21] is Homo sapiens. Kind of data set: Selectivity ratio of IC50 for EP2 receptor (unknown origin) to IC50 for human EP1 receptor.
In data set [22] the target is T5, Prostaglandin E2 receptor EP3 subtype. Kind of data set: Antagonist activity at EP3 receptor (unknown origin).
The target in data set [23] is T3, Prostaglandin E2 receptor EP4 subtype. Kind of data set: Antagonist activity at EP4 receptor (unknown origin).
The target of data set [24] is T4, Prostaglandin E2 receptor EP2 subtype. Kind of data set: Antagonist activity at EP2 receptor (unknown origin).

Each structure is given as a SMILES string. pIC50, pKi: −log10 of the molar value.

Cytochrome P450 2C9, sequence (P11712 whole entry): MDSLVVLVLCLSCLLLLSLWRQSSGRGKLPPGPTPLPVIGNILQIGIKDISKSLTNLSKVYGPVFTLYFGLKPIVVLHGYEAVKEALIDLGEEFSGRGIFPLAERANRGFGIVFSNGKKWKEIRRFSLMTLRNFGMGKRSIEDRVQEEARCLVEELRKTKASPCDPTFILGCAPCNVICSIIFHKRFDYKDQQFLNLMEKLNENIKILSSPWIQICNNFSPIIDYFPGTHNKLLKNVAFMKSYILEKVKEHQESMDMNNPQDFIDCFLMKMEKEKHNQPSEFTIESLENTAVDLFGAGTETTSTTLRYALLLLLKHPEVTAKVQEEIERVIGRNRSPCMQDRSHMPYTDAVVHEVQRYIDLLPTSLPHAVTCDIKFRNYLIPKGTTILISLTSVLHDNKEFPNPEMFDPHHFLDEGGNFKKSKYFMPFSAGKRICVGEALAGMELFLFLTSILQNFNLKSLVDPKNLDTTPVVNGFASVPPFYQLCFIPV
Cytochrome P450 3A4, sequence (P08684 whole entry): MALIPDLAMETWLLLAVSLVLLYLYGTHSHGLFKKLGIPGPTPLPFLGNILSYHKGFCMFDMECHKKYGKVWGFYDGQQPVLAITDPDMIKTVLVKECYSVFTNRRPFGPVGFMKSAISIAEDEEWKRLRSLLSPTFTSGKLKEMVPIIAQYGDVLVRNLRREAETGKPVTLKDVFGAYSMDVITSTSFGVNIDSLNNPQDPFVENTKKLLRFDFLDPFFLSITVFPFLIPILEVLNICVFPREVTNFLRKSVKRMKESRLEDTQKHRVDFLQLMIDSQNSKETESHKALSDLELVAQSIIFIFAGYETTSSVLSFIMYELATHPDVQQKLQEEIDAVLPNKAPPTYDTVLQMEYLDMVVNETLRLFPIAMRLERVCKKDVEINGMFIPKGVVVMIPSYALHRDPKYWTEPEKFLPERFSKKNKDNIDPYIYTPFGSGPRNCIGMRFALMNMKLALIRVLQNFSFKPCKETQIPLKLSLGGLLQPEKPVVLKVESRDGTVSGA
Cytochrome P450 2C19, sequence (P33261 whole entry): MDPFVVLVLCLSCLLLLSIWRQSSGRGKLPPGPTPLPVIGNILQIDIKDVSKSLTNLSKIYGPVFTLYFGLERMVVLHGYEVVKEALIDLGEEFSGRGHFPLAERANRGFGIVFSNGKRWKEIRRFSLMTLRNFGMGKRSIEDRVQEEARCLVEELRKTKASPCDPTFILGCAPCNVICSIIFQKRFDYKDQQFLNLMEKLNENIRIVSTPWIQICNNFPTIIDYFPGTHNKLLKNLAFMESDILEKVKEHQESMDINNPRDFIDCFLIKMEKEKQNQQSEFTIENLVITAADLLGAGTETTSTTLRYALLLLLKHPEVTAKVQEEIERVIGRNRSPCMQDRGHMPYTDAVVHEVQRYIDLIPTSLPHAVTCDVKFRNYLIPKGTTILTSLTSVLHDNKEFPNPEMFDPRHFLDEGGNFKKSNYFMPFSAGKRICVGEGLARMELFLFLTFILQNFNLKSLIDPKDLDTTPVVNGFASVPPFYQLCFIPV
Cytochrome P450 2D6, sequence (P10635 whole entry): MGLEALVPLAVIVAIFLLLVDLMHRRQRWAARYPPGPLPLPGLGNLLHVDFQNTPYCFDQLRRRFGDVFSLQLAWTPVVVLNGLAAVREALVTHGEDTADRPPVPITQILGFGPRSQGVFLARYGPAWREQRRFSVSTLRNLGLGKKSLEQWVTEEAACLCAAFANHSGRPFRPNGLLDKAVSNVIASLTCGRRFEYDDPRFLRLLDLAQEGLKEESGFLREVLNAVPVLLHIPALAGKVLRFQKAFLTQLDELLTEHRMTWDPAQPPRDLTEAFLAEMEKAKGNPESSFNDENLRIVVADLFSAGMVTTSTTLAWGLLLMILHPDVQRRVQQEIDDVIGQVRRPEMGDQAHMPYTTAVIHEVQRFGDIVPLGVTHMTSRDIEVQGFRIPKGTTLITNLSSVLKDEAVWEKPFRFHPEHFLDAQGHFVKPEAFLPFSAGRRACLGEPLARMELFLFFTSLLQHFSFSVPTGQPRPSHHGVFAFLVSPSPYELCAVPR
T3 sequence (P35408 whole entry): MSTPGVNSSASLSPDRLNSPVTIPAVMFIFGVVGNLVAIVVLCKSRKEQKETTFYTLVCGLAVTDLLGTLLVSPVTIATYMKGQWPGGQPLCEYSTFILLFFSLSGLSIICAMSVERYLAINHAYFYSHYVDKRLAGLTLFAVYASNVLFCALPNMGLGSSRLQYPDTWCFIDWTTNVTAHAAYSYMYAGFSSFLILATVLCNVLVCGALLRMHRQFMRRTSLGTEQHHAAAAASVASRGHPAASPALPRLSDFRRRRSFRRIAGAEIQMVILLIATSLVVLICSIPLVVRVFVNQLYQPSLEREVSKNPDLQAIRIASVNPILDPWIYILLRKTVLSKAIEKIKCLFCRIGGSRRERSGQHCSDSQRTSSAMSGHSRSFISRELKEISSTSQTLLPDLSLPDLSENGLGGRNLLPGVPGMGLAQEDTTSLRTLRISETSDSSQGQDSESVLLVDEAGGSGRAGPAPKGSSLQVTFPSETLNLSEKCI
T4 sequence (P43116 whole entry): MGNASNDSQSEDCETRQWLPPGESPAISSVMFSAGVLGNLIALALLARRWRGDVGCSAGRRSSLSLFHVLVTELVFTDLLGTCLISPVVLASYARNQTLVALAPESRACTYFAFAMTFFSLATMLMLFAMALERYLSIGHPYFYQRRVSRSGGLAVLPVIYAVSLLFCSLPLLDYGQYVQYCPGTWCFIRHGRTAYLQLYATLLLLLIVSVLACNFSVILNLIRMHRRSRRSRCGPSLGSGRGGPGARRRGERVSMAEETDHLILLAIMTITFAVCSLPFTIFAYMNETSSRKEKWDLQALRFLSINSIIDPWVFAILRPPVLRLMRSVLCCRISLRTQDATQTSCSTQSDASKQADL

Consider `Cc1c(-c2ccccc2)nc(-c2nc(C(=O)O)cs2)n1-c1ccccc1`, for which the inhibition (usually the drop in the measured response relative to a control, in per cent) in [1] came out at 7%.
With `CC(C)(C)c1cc(-c2ccccc2)nn1-c1nc(C(=O)O)cs1`, the inhibition in [1] is 1%.
Regarding `O=C(O)c1csc(-n2nc(-c3cccc(O)c3)cc2C(F)(F)F)n1`, in [2], the pIC50 (commonly −log10 of the IC50, conventionally taken in molar units) is 6.24.
In [2], `Cc1c(-c2ccccc2)nn(-c2nc(C(=O)O)cs2)c1C(F)(F)F` had a pIC50 of 7.08.
Consider `O=C(O)c1csc(-n2nc(-c3ccccc3)cc2-c2ccccc2)n1`, for which, in data set [1], the inhibition was found to be 31%.
Consider `Cc1c(-c2ccccc2)nn(-c2nc(C(=O)O)cs2)c1-c1ccccc1`, for which, in data set [3], the bioavailability (in general, the share of a dose that reaches the circulation, judged against a reference dose that is usually intravenous) came out at 32%. The Activity result in data set [4] and in data set [5] was “Non-toxic” each time. The Papp A→B (as a rule, how fast a substance crosses the layer from the apical side) in data set [6] turned out to be 51.6 ×10⁻⁶ cm/s. Moreover, the negative logarithm of the Ki (pKi) (usually −log10 of the Ki, conventionally taken in molar units) in data set [7] is < 5.57; in data set [8] it was < 5.10; in data set [9], < 5.30; in [10], 6.54. The values for the pIC50 in data set [11] and in data set [2] were 6.30 and 7.30, respectively. The intrinsic clearance (CLint scaled) (usually the rate of metabolic loss divided by the concentration) in data set [12] worked out at 15 mL/min/kg; in [13], 35 mL/min/kg. Also, the IC50 – broadly, the concentration that gives 50% inhibition – in data set [14] is > 10 µM; in data set [15] it was > 10 µM; in [16] it was 4.71 µM; in data set [17], > 10 µM; in data set [18] it was 7.93 µM.
In data set [2], `COc1ccc(-c2cc(C(F)(F)F)n(-c3nc(C(=O)O)cs3)n2)cc1` showed a pIC50 of 6.37.
As for `O=C(O)c1csc(-n2nc(-c3ccccc3O)cc2C(F)(F)F)n1`, the Activity result in data set [4] and in data set [5] was “Non-toxic” throughout. Besides, in data set [6], the Papp A→B turned out to be 22.8 ×10⁻⁶ cm/s. Moreover, the pKi in data set [7] was < 5.57; in data set [8], < 5.10; in [9], < 5.30; in data set [10], 6.28. Moreover, the pIC50 in [11] is 6.10; in [2], 6.74. The CLint scaled turned out to be 130 mL/min/kg in data set [12] and 500 mL/min/kg in data set [13]. Besides, the IC50 in [14], in data set [15], in data set [16], in [17] and in [18] was > 10 µM each time.
Consider `Cn1c(-c2ccccc2)nc(-c2nc(C(=O)O)cs2)c1-c1ccccc1`, for which the negative-log IC50 (pIC50) in data set [2] was 6.30.
`O=C(O)c1csc(-n2nc(-c3ccc(O)cc3)cc2C(F)(F)F)n1` gave a pIC50 in [2] of 6.49.
In the case of `O=C(O)c1csc(-n2nc(-c3ccccc3)cc2C(F)(F)F)n1`, the CLint scaled in [13] was 28 mL/min/kg. Also, the IC50 in data set [14], in [15], in [16], in data set [17] and in data set [18] was > 10 µM throughout. Also, the pIC50 in [2] was 6.49.
Take `Cc1cc(-c2ccccc2)nn1-c1nc(C(=O)O)cs1`: the inhibition in [1] amounted to 14%.
Regarding `COc1ccc(-c2cc(C(F)(F)F)nn2-c2nc(C(=O)O)cs2)cc1`, the Ratio IC50 in data set [19], in data set [20] and in data set [21] was 3 each time. For the same compound, the pIC50 in data set [22] was < 5.30; in data set [23], < 5.57; in [24], < 5.10; in data set [11] it was 5.24; in [2], 6.00. Moreover, the Activity result in data set [4] and in data set [5] was “Non-toxic” each time. Also, the pKi in data set [7] is < 5.57; in data set [8] it was < 5.10; in data set [9], < 5.30; in data set [10], 5.06. Further, the intrinsic clearance (CLint scaled) in [12] came out at 195 mL/min/kg; in data set [13] it was 187 mL/min/kg. Further, the IC50 in data set [14] is > 10 µM; in [15], > 10 µM; in data set [16], 7.14 µM; in data set [17] it was > 10 µM; in data set [18], > 10 µM.
In data set [2], `Cc1ccc(-c2cc(C(F)(F)F)n(-c3nc(C(=O)O)cs3)n2)cc1` showed a negative logarithm of the IC50 (pIC50) of 5.52.
